Consider five molecules from PMC7531004, “Discovery of gramicidin A analogues with altered activities by multidimensional screening of a one-bead-one-compound library” (Nature Communications, 2020).

Where a SMILES comes first, the peptide text is derived from it. [ ]: non-standard residue; d: D form. The star is where a group is joined. NHCH2CH2OH = OCCN*; For = O=C*

Data set [1] deals with Streptococcus pyogenes SSI-9. Nature of the data set: Antibacterial activity assay of bead-derived peptides (three concentrations). Type of data set: cell-based. Also noted: key: +++: inhibition by the 640-fold diluted peptide solution; ++: inhibition by the 160-fold diluted solution; +: inhibition by the 40-fold diluted solution; -: no inhibition. As to conditions: S. pyogenes, bead-derived peptide solution, three concentrations. Put shortly:
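Library peptide stock applied undiluted, 4-fold and 16-fold diluted in DMSO to S. pyogenes SSI-9 (2 × 10^5 CFU) in cation-adjusted Mueller Hinton broth with 5% laked horse blood. After 18 h at 37 °C, growth judged by visible cell precipitation.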

For data set [2], the system named is P388 mouse leukemia cells. To be noted: 92 h. An outline of the steps:
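P388 cells at 1 × 10^4 cells/mL (final) were exposed to library peptides (stocks diluted 250-fold in RPMI1640/10% FBS) for 92 h at 37 °C, 5% CO2. Viable cells were counted by WST-1/1-methoxy PMS (4 h), absorbance 415 nm, and expressed as cell viability (%).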

Data set [3] in a line: H+/Na+ transport assay of bead-derived peptides (one-point).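 Further: relative to parent gramicidin A activity set to 1.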 To be noted: bead-derived peptide solution, EYPC/EYPG LUVs. Also on record: key: relative activity; mean of two control wells = 1.00. Type of data set: biochemical. An outline of the steps: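 Miniaturized 96-well format. LUVs with entrapped pyranine (1.0 mM) were exposed to peptide for 30 min at RT. Intensities were expressed relative to full lysis by Triton X-100 and no treatment, with control-well mean = 1.00.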

For the molecule `CC(C)C[C@@H](NC(=O)[C@H](C)NC(=O)CNC(=O)[C@@H](NC=O)C(C)C)C(=O)N[C@@H](C)C(=O)N[C@H](CC(C)C)C(=O)N[C@H](C(=O)N[C@@H](C(=O)N[C@@H](Cc1c[nH]c2ccccc12)C(=O)N[C@@H](C(=O)N[C@@H](Cc1c[nH]c2ccccc12)C(=O)N[C@@H](C(=O)N[C@@H](Cc1c[nH]c2ccccc12)C(=O)N[C@H](CC(C)C)C(=O)N[C@@H](Cc1c[nH]c2ccccc12)C(=O)NCCO)C(C)C)C(C)C)[C@H](C)O)C(C)C` [compound 7548] (For-VGA[dL]A[dL]V[dT]W[dV]W[dV]W[dL]W-NHCH2CH2OH), the antibacterial activity result in data set [1] was “-”. The molecule further came in with a cell viability/% in data set [2] of 100.0%. Further, the “H+/Na+ transport activity normalized against the value of 1 (1.00)” value (from here on “H+/Na+ transport activity normalized”) in data set [3] stood at 1.08.

With `CC(C)C[C@@H](NC(=O)[C@H](Cc1c[nH]c2ccccc12)NC(=O)[C@H](NC(=O)[C@H](Cc1c[nH]c2ccccc12)NC(=O)[C@@H](CC(C)C)NC(=O)[C@H](Cc1c[nH]c2ccccc12)NC(=O)[C@H](NC(=O)[C@@H](NC(=O)[C@H](NC(=O)[C@H](C)NC(=O)[C@H](NC(=O)[C@H](C)NC(=O)CNC(=O)[C@@H](NC=O)C(C)C)C(C)C)C(C)C)C(C)C)[C@H](C)O)C(C)C)C(=O)N[C@@H](Cc1c[nH]c2ccccc12)C(=O)NCCO` [compound 7702] (For-VGA[dV]A[dV]V[dT]W[dL]W[dV]W[dL]W-NHCH2CH2OH), the antibacterial activity result in data set [1] is “-”. For the same molecule, in data set [2], the cell viability/% was 100.0%. In data set [3], the “H+/Na+ transport activity normalized” value is recorded as 1.01.

For the molecule `CNC(=O)C[C@@H](NC(=O)[C@@H](NC(=O)[C@H](NC(=O)[C@H](C)NC(=O)[C@@H](CC(C)C)NC(=O)[C@H](C)NC(=O)CNC(=O)[C@@H](NC=O)C(C)C)C(C)C)C(C)C)C(=O)N[C@@H](Cc1c[nH]c2ccccc12)C(=O)N[C@@H](C(=O)N[C@@H](Cc1c[nH]c2ccccc12)C(=O)N[C@H](CC(C)C)C(=O)N[C@@H](Cc1c[nH]c2ccccc12)C(=O)N[C@H](CC(C)C)C(=O)N[C@@H](Cc1c[nH]c2ccccc12)C(=O)NCCO)C(C)C` [compound 7808] (For-VGA[dL]A[dV]V[dD](NHMe)W[dV]W[dL]W[dL]W-NHCH2CH2OH), the antibacterial activity result in data set [1] is reported as “-”. The molecule further registered a cell viability/% in data set [2] of 100.0%. Further, in data set [3], the “H+/Na+ transport activity normalized” value is given as 1.21.

`CC(C)C[C@@H](NC(=O)[C@H](C)NC(=O)[C@H](NC(=O)[C@H](C)NC(=O)CNC(=O)[C@@H](NC=O)C(C)C)C(C)C)C(=O)N[C@H](C(=O)N[C@@H](C(=O)N[C@@H](Cc1c[nH]c2ccccc12)C(=O)N[C@@H](C(=O)N[C@@H](Cc1c[nH]c2ccccc12)C(=O)N[C@H](CC(C)C)C(=O)N[C@@H](Cc1c[nH]c2ccccc12)C(=O)N[C@H](CC(C)C)C(=O)N[C@@H](Cc1c[nH]c2ccccc12)C(=O)NCCO)C(C)C)[C@H](C)O)C(C)C` [compound 7840] (For-VGA[dV]A[dL]V[dT]W[dV]W[dL]W[dL]W-NHCH2CH2OH): in data set [1], the antibacterial activity entry is “-”. Also, in data set [2], the cell viability/% came out at 100.0%. In data set [3], the “H+/Na+ transport activity normalized” value was found to be 1.12.

As to `CC(C)C[C@@H](NC(=O)[C@H](C)NC(=O)CNC(=O)[C@@H](NC=O)C(C)C)C(=O)N[C@@H](C)C(=O)N[C@H](CC(C)C)C(=O)N[C@H](C(=O)N[C@@H](C(=O)N[C@@H](Cc1c[nH]c2ccccc12)C(=O)N[C@@H](C(=O)N[C@@H](Cc1c[nH]c2ccccc12)C(=O)N[C@@H](C(=O)N[C@@H](Cc1c[nH]c2ccccc12)C(=O)N[C@@H](C(=O)N[C@@H](Cc1c[nH]c2ccccc12)C(=O)NCCO)C(C)C)C(C)C)C(C)C)C(C)C)C(C)C` [compound 7845] (For-VGA[dL]A[dL]V[dV]W[dV]W[dV]W[dV]W-NHCH2CH2OH), the antibacterial activity entry in data set [1] is listed as “+”. In addition, in data set [2], the cell viability/% worked out at 100.0%. Besides, the “H+/Na+ transport activity normalized” value in data set [3] worked out at 1.04.
